The text below walks through data of the OligoGym collection.

These antisense oligonucleotides have a phosphorothioate backbone; sugars and methylation of C are not fully specified.

What all share (conditions): ASO
The target in series [1] is PRKCA.
For series [2], the target named is ABCB1.
In series [3] the target is Agtr1a (rat).
In series [4] the target is RAF1.
Also: test concentration or dose not given here.

AAAACGTCAGCCATGGTCCC: in series [1], the remaining target (mRNA or protein) (fraction of control) was determined as 0.39.
In turn, AAAAGTTCTTCTTTGCTGCT showed a remaining target (mRNA or protein) (fraction of control) in series [2] of 0.92.
As to AACAGAGGGTTCAGGCAGTT, in series [3], the remaining target (mRNA or protein) (fraction of control) was 0.29.
In the case of AAGAGAGAGACCCTGAACAG, the remaining target (mRNA or protein) (fraction of control) in series [1] worked out at 0.62.
For AAGGGTATAGCTGGTGAGAAT, the remaining target (mRNA or protein) (fraction of control) in series [3] was found to be 0.39.
With ACACGTGTGAAGGAACACAC, the remaining target (mRNA or protein) (fraction of control) in series [3] was determined as 0.51.
Regarding ACTGACAGTTGGTTTCTTT, in series [2], the remaining target (mRNA or protein) (fraction of control) worked out at 0.84.
Still for that read-out and setting: under ACTTTTATTGTTCAGTTTAAA stands 0.97.
In the case of AGAAGAGTTAAGGGCCATTT, the remaining target (mRNA or protein) (fraction of control) in series [3] amounted to 0.46.
In series [3], AGACACGTGTGAAGGAACAC returned a remaining target (mRNA or protein) (fraction of control) of 0.5.
The same measure, in the same setting: under AGAGGGTTCAGGCAGTTGTT stands 0.3.
In series [1], AGCCGTGGCCTTAAAATTTT came in with a remaining target (mRNA or protein) (fraction of control) of 0.84.
In turn, AGCGTCGAATTCCGAGACTC returned a remaining target (mRNA or protein) (fraction of control) in series [3] of 0.29.
On to AGTCGGTGCAGTGGCTGGAG, for which the remaining target (mRNA or protein) (fraction of control) in series [1] was found to be 0.88.
Sequence AGTTCTTCTTTGCTGCTCCA had a remaining target (mRNA or protein) (fraction of control) in series [2] of 0.7.
For ATACTGACAGTTGGTTTCT, in series [2], the remaining target (mRNA or protein) (fraction of control) amounted to 0.65.
As for ATAGCTGGTGAGAATGATAAG, in series [3], the remaining target (mRNA or protein) (fraction of control) was 0.44.
The same measure, in the same setting: to ATGCGGTCGATGCTGAGACA belongs 0.75.
Regarding ATGGGGTGCACAAACTGGGG, in series [1], the remaining target (mRNA or protein) (fraction of control) amounted to 0.94.
Same read-out and setting: under ATTTTCAGGCCTCCATATGG stands 0.82; under CACTGCGGGGAGGGCTGGGG, at least 1.
Turning to CAGCAGAAGAGTTAAGGGCC, the remaining target (mRNA or protein) (fraction of control) in series [3] was determined as 0.37.
With CATCCCGACCTCGCGCTCCT, the remaining target (mRNA or protein) (fraction of control) in series [2] worked out at 0.
In turn, CCCCAACCACCTCTTGCTCC had a remaining target (mRNA or protein) (fraction of control) in series [1] of 0.39.
Take CCCGACCTCGCGCTCCTTGG: the remaining target (mRNA or protein) (fraction of control) in series [2] came out at 0.15.
Take CCCGGGAAAACGTCAGCCAT: in series [1], the remaining target (mRNA or protein) (fraction of control) came out at 0.52.
The same measure, in the same setting: to CGCCGTGGAGTCGTTGCCCG belongs 0.54.
In turn, CGCGTCCTTGGAACGGCCAC displayed a remaining target (mRNA or protein) (fraction of control) in series [2] of 0.15.
On the same count and under the same terms, to CGGTCCCCTTCAAGATCCAT belongs 0; to CGTCCTTGGAACGGCCACCA, 0.18.
In the case of CTGCCTCAGCGCCCCTTTGC, in series [1], the remaining target (mRNA or protein) (fraction of control) came to 0.47.
CTGGCGTAGAGGTTGAAGCT yielded a remaining target (mRNA or protein) (fraction of control) in series [3] of 0.41.
Take GACCTCGCGCTCCTTGGAAC: the remaining target (mRNA or protein) (fraction of control) in series [2] stood at 0.17.
In series [1], GAGACCCTGAACAGTTGATC gave a remaining target (mRNA or protein) (fraction of control) of 0.61.
As to GAGCTTGGAAGAGCCGCTACT, in series [2], the remaining target (mRNA or protein) (fraction of control) worked out at 0.54.
GATAATGTTCTTGGTTGTAA had a remaining target (mRNA or protein) (fraction of control) in series [1] of 0.85.
GATGGTGATGGGCATGGCAG showed a remaining target (mRNA or protein) (fraction of control) in series [3] of 0.32.
Consider GCAGAAGAGTTAAGGGCCAT, for which the remaining target (mRNA or protein) (fraction of control) in series [3] is 0.32.
In series [1], GCAGAGGCTGGGGACATTGA had a remaining target (mRNA or protein) (fraction of control) of 0.81.
GCCGCCCCAACGTCCTGTCG came in with a remaining target (mRNA or protein) (fraction of control) in series [4] of 0.42.
Regarding GCGGTCGATGCTGAGACACG, the remaining target (mRNA or protein) (fraction of control) in series [3] is 0.35.
Consider GCTCCATTGATGCAGCTTGA, for which the remaining target (mRNA or protein) (fraction of control) in series [4] was found to be 0.63.
Same read-out and setting: to GCTCCTGGAAGACAAAATTC belongs 0.82.
On to GGATGCGGTCGATGCTGAGA, for which, in series [3], the remaining target (mRNA or protein) (fraction of control) was determined as 0.39.
Regarding GGATTCACTTCCACTGCGGG, in series [1], the remaining target (mRNA or protein) (fraction of control) amounted to 0.82.
GGCGTAGAGGTTGAAGCTCA: the remaining target (mRNA or protein) (fraction of control) in series [3] was determined as 0.27.
GGGAGCGTCGAATTCCGAGA: in series [3], the remaining target (mRNA or protein) (fraction of control) came out at 0.21.
The sequence GGGCTGGGGAGGTGTTTGTT displayed a remaining target (mRNA or protein) (fraction of control) in series [1] of 0.95.
For GGGTTCAGGCAGTTGTTAAA, the remaining target (mRNA or protein) (fraction of control) in series [3] came to 0.29.
GGTATAGCTGGTGAGAATGAT registered a remaining target (mRNA or protein) (fraction of control) in series [3] of 0.46.
On the same count and under the same terms, to GGTCGATGCTGAGACACGTG belongs 0.49.
In series [4], GGTGAGGGAGCGGGAGGCGG displayed a remaining target (mRNA or protein) (fraction of control) of 0.98.
On the same count and under the same terms, under GGTGCAAAGTCAACTAGAAG stands 0.88.
In turn, GTCAGCCATGGTCCCCCCCC registered a remaining target (mRNA or protein) (fraction of control) in series [1] of 0.46.
In series [3], GTCGAATTCCGAGACTCATA had a remaining target (mRNA or protein) (fraction of control) of 0.25.
For the sequence GTCTGGCGCTGCACCACTCT, the remaining target (mRNA or protein) (fraction of control) in series [4] stood at 0.35.
In series [3], GTGATGGGCATGGCAGTGTC registered a remaining target (mRNA or protein) (fraction of control) of 0.29.
On to GTTCTCGCTGGTGAGTTTCA, for which, in series [1], the remaining target (mRNA or protein) (fraction of control) worked out at 0.52.
Sequence TAAAGGGTATAGCTGGTGAGA displayed a remaining target (mRNA or protein) (fraction of control) in series [3] of 0.35.
In series [2], TACTCCGACTTTAGTGGAAA had a remaining target (mRNA or protein) (fraction of control) of 0.84.
On to TCAAATGGAGGCTGCCCGGC, for which the remaining target (mRNA or protein) (fraction of control) in series [1] is 0.66.
In the case of TCAGGGCTGGACTGCCTGCT, the remaining target (mRNA or protein) (fraction of control) in series [4] is 0.52.
TCCCCTTCAAGATCCATCCC: the remaining target (mRNA or protein) (fraction of control) in series [2] came to 0.2.
In turn, TCCCGCCTGTGACATGCATT displayed a remaining target (mRNA or protein) (fraction of control) in series [4] of 0.05.
For the sequence TCCGACTTTAGTGGAAAGAC, in series [2], the remaining target (mRNA or protein) (fraction of control) is 0.9.
In series [4], TCCTCCTCCCCGCGGCGGGT came in with a remaining target (mRNA or protein) (fraction of control) of 0.95.
Still for that read-out and setting: to TCTGGCGCTGCACCACTCTC belongs 0.25.
Sequence TCTTCTTTGCTCCTCCATTG came in with a remaining target (mRNA or protein) (fraction of control) in series [2] of 0.67.
With TGAAGGTGAGCTGGAGCCAT, the remaining target (mRNA or protein) (fraction of control) in series [4] was at least 1.
With TGACAGTTGGTTTCTTTCC, in series [2], the remaining target (mRNA or protein) (fraction of control) was 0.85.
On to TGGAATCAGACACAAGCCGT, for which, in series [1], the remaining target (mRNA or protein) (fraction of control) amounted to 0.89.
Sequence TGGTGATGGGCATGGCAGTG came in with a remaining target (mRNA or protein) (fraction of control) in series [3] of 0.21.
The sequence TGTAGCCAACAGCTGGGGCT yielded a remaining target (mRNA or protein) (fraction of control) in series [4] of 0.96.
On the same count and under the same terms, to TGTGACTAGAGAAACAAGGC belongs 0.68.
On the same count and under the same terms, to TTAAAATAACATAATTGAGG belongs 0.93.
Take TTCAGGCAGTTGTTAAAATA: in series [3], the remaining target (mRNA or protein) (fraction of control) was determined as 0.86.
Regarding TTCGGCGGCAGCTTCTCGCC, the remaining target (mRNA or protein) (fraction of control) in series [4] worked out at 0.37.
Still for that read-out and setting: to TTCTCCTCCTCCCCTGGCAG belongs 0.8.
TTCTCGCCCGCTCCTCCTCC had a remaining target (mRNA or protein) (fraction of control) in series [4] of 0.65.
Still for that read-out and setting: under TTGAGCATGGGGAATGTGGG stands 0.63.
For TTGAGCTTGGAAGAGCCGCTA, the remaining target (mRNA or protein) (fraction of control) in series [2] was 0.54.
In series [4], TTGTCAGGTGCAATAAAAAC had a remaining target (mRNA or protein) (fraction of control) of 0.88.
